Laboratory results reported in patent publication US9452185B2, “Mesenchymal stem cells and supports for tissue regeneration, repair and reconstruction” (THE TEXAS A&M UNIVERSITY SYSTEM, priority 2009, dated 2016).
“Also recorded” adds a separate entry of the source.

What was measured:
calvarial defects = test: Calvarial defect repair, 50 days (x-ray radio-opacity); type: in vivo, nude mice; settings: for repair of cranial lesions (radio-opacity ratio lesioned/contralateral): day 50, 1×10^6 pretreated hMSCs in plasma, further doses day 14, 28, 42
Experimental: Calvarial lesions. MSCs were cultured in the presence of osteogenic base media containing the appropriate inhibitor or vehicle. After 8 days, they were suspended in human plasma and administered to nude mice that had received a circular lesion in the cranium. Subsequent doses of cells were administered by direct injection in plasma/thromboplastin mix.
X-ray imaging and quantification. Cranial bones were imaged by x-ray under anaesthesia. Digital images were be captured on a digital plate and processed on a phosphorimager reader and processed by volume analysis software.
Effects of GSKβ and PPARγ inhibition on repair of an induced cranial defect in mice. Given that BIO and GW accelerated osteogenic differentiation by human MSCs in vitro, experiments were conducted to test whether the treated hMSCs could repair a critical bone defect in vivo. Human MSCs were cultured in the presence of osteogenic medium lacking dex, but containing BIO (200 and 800 nM) or GW (1.0 and 10.0 μM). Calvarial lesions were generated in nude mice and 1×10^6 hMSCs, mixed with human plasma were applied followed by thromboplastin to initiate gelling. The scalp was sutured and the animals were allowed to heal. Initially, short-duration experiments were performed to monitor distribution of the hMSCs, and to ensure the cells had survived the implantation process. GFP-labeled hMSCs were administered and mice were sacrificed after 24 h. Upon histological analysis, a substantial number of GFP-labeled, healthy hMSCs had formed a thick layer over the injury and adjacent bone tissue (FIG. 24A, 24B). The hMSCs could be readily detected with an antibody for membrane localized human β-2 microglobulin (FIG. 24C, 24D). Robust antibody-detection of unmanipulated hMSCs, rather than lentiviral labeling was favored in long term experiments because very low passage hMSCs could be utilized, rather than genetically tagged preparations that had undergone a number of passages. Long term experiments were performed for 50 days with further doses of hMSCs administered at day 14, 28 and 42 by direct injection of a plasma:hMSC mixture under the scalp (FIG. 25A). At day 50, the crania were explanted and x-ray images of the calvarial lesions were taken. The digitized images were then analysed densitometrically to quantify the degree of bone accrual (FIG. 25B). The lesioned side was compared with the contralateral side and data were expressed as the ratio of radio-opacity on the lesioned side to the contralateral side. […] When the sections were stained with anti-β-2 microglobulin, isolated clusters of hMSCs from only control and GW groups were detected (FIGS. 27C and 27D).

hMSCs [1] = test: Microarray of cultured hMSCs after 8 days in osteogenic media (in vitro); type: cell-based, human; settings: for transcript transducin-like enhancer of split-1 / transcripts Klf-6, caldesmon-1, gamma-aminobutyric acid B receptor-2, synaptotagmin like-2 / transcripts fibroblast growth factor-7, high mobility group AT-hook 2, Cdk5 and Abl enzyme substrate-1, amyloid beta precursor protein-binding family B2 / transcripts protocadherin-7, PR domain containing-1, gremlin-1, collectin subfamily member-12, stanniocalcin-2: 8 days, 200/800 nM BIO, 1.0/10 μM GW; for collagens and ECM proteins found in bone tissue (transcripts): vs vehicle control
Experimental: Array analysis. Transcriptome arrays were performed using Affimetrix apparatus and HG-U133 Plus 2.0 chips. Cytokine arrays on conditioned media were performed using a human cytokine array and analyzed using a digital imager. Effects of GSK3β and PPARγ inhibition on the transcriptome of hMSCs. […] After 8 days of culture, RNA microarrays were performed on the hMSCs.

hMSCs [2] = test: hMSC yield, cell cycle analysis and cleaved caspase-3 immunoblot; type: cell-based, human; settings: for hMSC yield: BIO at concentrations greater than 400 nM, GW at tested doses; for cleaved caspase-3 (Asp175) immunoblot: whole cell extracts of treated hMSCs
Experimental: Cell cycle. Profiles were generated by fluorescence activated cell sorting and analyzed with software. Protein extraction, gel electrophoresis and western blotting. Nuclear extracts were performed by Triton extraction and differential centrifugation as previously described (Gregory et al., 2003, J Biol Chem 278:2806728078). Proteins were electrophoresed and blotted onto nitrocellulose using an electrophoresis system.

osteoprotegerin (OPG) = test: OPG secretion by ELISA; type: cell-based, human; settings: osteogenic medium lacking dex, 8 days
Experimental: (§1) ELISAs. ELISA for CXCL6, Dkk-1, GROa, GRO13, and OPG were carried out by using nonbiotinylated polyclonal capture antibodies and biotinylated detection antibodies that were commercially acquired on coated 96-well plates The biotinylated […] antibodies were detected by using horseradish peroxidase-conjugated streptavidin and TMB substrate. ELISA for IL-lb were performed by using commercially acquired kits. In order to characterize the influence of 7AIPM on osteogenic differentiation, hMSC's from two donors were cultured as described elsewhere herein with the addition of varying concentrations of the compound or vehicle to the media. Samples of the media were collected daily for analysis. These samples were analyzed for the presence of OPG and Dkk-1 using ELISA. Alkaline phosphatase activity of the monolayers and cell numbers were measured using a spectrophotometer.

β-catenin, GSK3β, PPARγ = test: Intracellular distribution of β-catenin, GSK3β and PPARγ (immunoblot, fluorescence microscopy); type: cell-based, human; settings: for GSK3β in the cytoplasm / nuclear β-catenin: MSCs under osteogenic conditions
Experimental: Protein extraction, gel electrophoresis and western blotting. Nuclear extracts were performed by Triton extraction and differential centrifugation as previously described (Gregory et al., 2003, J Biol Chem 278:2806728078). Proteins were electrophoresed and blotted onto nitrocellulose using an electrophoresis system. Histochemistry and immunocytochemistry. For β-catenin localization studies, hMSCs were stained with a cy-3 conjugated anti-β-catenin antibody and nuclei were counterstained with pico-green dye. Specimens were processed as paraffin blocks and 8 longitudinal sections were prepared, deparaffinized and rehydrated, then stained with hematoxylin and eosin. For immunocytochemistry, sections were probed with an anti-human β-2-microglobulin antibody. An upright fluorescent microscope fitted with a high performance camera (and image analysis software was employed for imaging.

Dkk-1 = Dkk-1 secretion by ELISA; type: cell-based, human; settings: osteogenic medium lacking dex, 8 days
Experimental: as §1

hMSCs [3] = test: Late stage osteogenesis, Alizarin Red S (ARS) staining; type: cell-based, human; settings: for dex-induced biomineralization with simultaneous treatment: 17 days with β-GP, ascorbate and dex; for dex-induced mineralization after pre-treatment: BIO 200 and 800 nM, GW 1.0 and 10.0 μM for 8 days, then 15 days with dex; for biomineralization in the absence of dex: extended incubation
Experimental: Late stage osteogenesis and ARS staining. Mature osteogenic assays were performed in 6 well format as previously described (Gregory et al., 2004, Anal Biochem 329:77-84).
Effect of GSK3β and PPARγ inhibition on late stage osteogenesis. […] Initially, experiments were conducted to examine whether pre-treatment of hMSCs with inhibitors BIO (200 and 800 nM) and GW (1.0 and 10.0 μM) in the presence of β-glycerophosphate (β-GP) and ascorbate for 8 days followed by 15 days in the same media supplemented with dex affected mineralization of the cultures. If BIO or GW function to accelerate the cells through the immature stages of osteogenesis and partially to maturity, hMSCs exposed to these conditions would be expected to respond more rapidly to the steroid-dependent mature osteoblast transition. After differentiation, calcium content was visualized by Alizarin Red S (ARS) staining and the dye was extracted and quantified. At the doses tested, and in a dose-dependent manner, BIO and GW enhanced dex-induced differentiation into biomineralizing osteoblasts (FIG. 21).
The next experiments were performed to examine whether withdrawal of the Wnt stimulus caused by BIO and GW was necessary for the hMSCs to progress to a dex-dependent biomineralizing phenotype. Human MSCs were pre-cultured with BIO and GW in the presence of f3-GP, ascorbate and dex for 17 days. […] Clotted human plasma is a biocompatible and osteoinductive vector for administration of hMSCs

Row | transcripts Klf-6, caldesmon-1, gamma-aminobutyric acid B receptor-2, synaptotagmin like-2 (hMSCs [1]) | transcripts fibroblast growth factor-7, high mobility group AT-hook 2, Cdk5 and Abl enzyme substrate-1, amyloid beta precursor protein-binding family B2 (hMSCs [1]) | hMSC yield (hMSCs [2]) | cleaved caspase-3 (Asp175) immunoblot (hMSCs [2]) | SMILES | transcript transducin-like enhancer of split-1 (hMSCs [1]) | transcripts protocadherin-7, PR domain containing-1, gremlin-1, collectin subfamily member-12, stanniocalcin-2 (hMSCs [1]) | collagens and ECM proteins found in bone tissue (transcripts) (hMSCs [1]) | nuclear levels of PPARγ (β-catenin, GSK3β, PPARγ) | GSK3β in the cytoplasm (β-catenin, GSK3β, PPARγ) | nuclear β-catenin (β-catenin, GSK3β, PPARγ) | Dkk-1 secretion (Dkk-1) | dex-induced biomineralization with simultaneous treatment (hMSCs [3]) | dex-induced mineralization after pre-treatment (hMSCs [3]) | biomineralization in the absence of dex (hMSCs [3]) | further results
1 | significantly up-regulated | significantly up-regulated | without reduction in cellular yield | no evidence of caspase 3 processing | O=C(Nc1ccccc1)c1cc([N+](=O)[O-])ccc1Cl [GW9662, 2-chloro-5-nitro-N-phenyl-benzamide] | down-regulated | no change | up-regulated | reduced | depletion | increased levels | reduced | enhanced dex-induced biomineralization | enhanced | did not induce biomineralization | improvement in healing compared with controls (calvarial defects; MSCs treated with GW9662 applied to calvaria bone defect): 2-3 fold; lesion healing (calvarial defects; after 50 days of repeated cell administration): about 60%; repair of cranial lesions (radio-opacity ratio lesioned/contralateral) (calvarial defects; listed as GW): significantly improved; also recorded: profoundly improved healing; inflammatory mediator genes (IL1, IL8, CXCL chemokines) (hMSCs [1]; vs control): profoundly down-regulated; dose of maximal stimulation of OPG secretion (osteoprotegerin (OPG)): 0.5 µM
2 | significantly up-regulated | no change | substantial reduction | no evidence of caspase 3 processing | O=C1Nc2cc(Br)ccc2/C1=C1/Nc2ccccc2/C1=N\O [BIO, bromo-indirubin-3′-mono-oxime] | down-regulated | significantly up-regulated | up-regulated | reduced | depletion | increased levels | reduced | enhanced dex-induced biomineralization | enhanced | did not induce biomineralization | repair of cranial lesions (radio-opacity ratio lesioned/contralateral) (calvarial defects): no significant sign of bone repair; cell cycle effect (hMSCs [2]; 800 nM BIO, 8 days): inhibit mitosis; secretion of OPG (osteoprotegerin (OPG)): rose in a dose dependent manner
